Experimental data taken from the CheMixHub viscosity set.
“And” between values parts separate entries of the source, which are not always exact repeats. Equal values may be shown once.

Test: xn = mol fraction of the nth substance listed

ClC(Cl)Cl + CCOC(C)=O
303.15 K, 101.3 kPa
Settings	viscosity [mPa·s]
x2 = 0.1062	0.5361
x2 = 0.2031	0.5455
x2 = 0.305	0.5471
x2 = 0.4094	0.5381
x2 = 0.5069	0.5255
x2 = 0.6112	0.5028
x2 = 0.808	0.4504
x2 = 0.9027	0.4254

NCCCC(=O)O + O
viscosity, 100 kPa
Settings	x1 = 0.0004	x1 = 0.0007	x1 = 0.0008999	x1 = 0.001	x1 = 0.0018	x1 = 0.002695	x1 = 0.004484	x1 = 0.006266	x1 = 0.008927
298.15 K	–	–	0.905 mPa·s	–	–	0.935 mPa·s	0.963 mPa·s	0.991 mPa·s	1.03 mPa·s
308.15 K	0.723 mPa·s	0.728 mPa·s	0.732 mPa·s	0.731 mPa·s and 0.735 mPa·s	0.742 mPa·s	0.76 mPa·s	–	0.814 mPa·s	0.852 mPa·s
313.15 K	0.655 mPa·s	0.66 mPa·s	–	0.662 mPa·s and 0.666 mPa·s	0.672 mPa·s	–	–	–	–
318.15 K	0.599 mPa·s	0.603 mPa·s	0.605 mPa·s	0.605 mPa·s and 0.609 mPa·s	0.614 mPa·s	0.623 mPa·s	0.64 mPa·s	0.658 mPa·s	0.684 mPa·s

O=C(O)[C@@H]1CCCN1 + O
viscosity [mPa·s], 101 kPa
Settings	x1 = 0.00045	x1 = 0.0009	x1 = 0.00135	x1 = 0.001798	x1 = 0.002245	x1 = 0.002695	x1 = 0.003143	x1 = 0.003588
293.15 K	1.009	1.018	1.027	1.036	1.045	1.054	1.064	1.073
298.15 K	0.8966	0.9039	0.9114	0.9192	0.9269	0.9349	0.9428	0.9507
303.15 K	0.8027	0.809	0.8154	0.8221	0.8288	0.8354	0.8421	0.8487
308.15 K	0.7236	0.7289	0.7344	0.7401	0.7456	0.7513	0.757	0.7625
313.15 K	0.6566	0.6611	0.6658	0.6705	0.6753	0.68	0.6849	0.6894
318.15 K	0.6007	0.6045	0.6085	0.6125	0.6164	0.6204	0.6244	0.6282

ClC(Cl)Cl + CCCCCCCCO
viscosity [mPa·s], 101 kPa
Settings	303.15 K	313.15 K
x1 = 0.0471	5.924	4.259
x1 = 0.0996	5.36	3.883
x1 = 0.149	4.852	3.545
x1 = 0.1997	4.346	3.212
x1 = 0.2493	3.898	2.902
x1 = 0.3001	3.475	2.593
x1 = 0.3529	3.039	2.315
x1 = 0.4037	2.666	2.07
x1 = 0.4548	2.332	1.823
x1 = 0.5001	2.062	1.648
x1 = 0.555	1.772	1.426
x1 = 0.5995	1.552	1.273
x1 = 0.6467	1.37	1.134
x1 = 0.7001	1.171	0.987
x1 = 0.7484	1.036	0.883
x1 = 0.7997	0.929	0.769
x1 = 0.8451	0.804	0.704
x1 = 0.9007	0.693	0.627
x1 = 0.9494	0.616	0.555

O=CC(Cl)(Cl)Cl + CC(C)CCO
313.15 K, 101 kPa
Settings	viscosity [mPa·s]
x1 = 0.0715	2.825
x1 = 0.2226	4.098
x1 = 0.2851	4.684
x1 = 0.3509	5.476
x1 = 0.4001	6.07
x1 = 0.4335	6.48
x1 = 0.4573	6.923
x1 = 0.4722	6.922
x1 = 0.4823	6.831
x1 = 0.4926	6.751
x1 = 0.5251	6.026
x1 = 0.5576	5.406
x1 = 0.6165	3.935
x1 = 0.7376	2.151
x1 = 0.8868	1.283

CC(=O)OCc1ccccc1 + CCc1ccccc1
viscosity [mPa·s], 101 kPa
Settings	x1 = 0.0913	x1 = 0.176	x1 = 0.2732	x1 = 0.3687	x1 = 0.467	x1 = 0.5592	x1 = 0.6706	x1 = 0.7597	x1 = 0.8652	x1 = 0.9304
303.15 K	0.643	0.692	0.755	0.825	0.912	1.006	1.133	1.265	1.428	1.526
313.15 K	0.577	0.616	0.663	0.717	0.784	0.845	0.943	1.033	1.156	1.233

CC(=O)OCc1ccccc1 + Cc1ccc(C)cc1
viscosity [mPa·s], 101 kPa
Settings	x1 = 0.0917	x1 = 0.1773	x1 = 0.2764	x1 = 0.3701	x1 = 0.4679	x1 = 0.5689	x1 = 0.6717	x1 = 0.7678	x1 = 0.8698	x1 = 0.9473
303.15 K	0.602	0.645	0.716	0.792	0.891	1.005	1.134	1.267	1.421	1.549
313.15 K	0.537	0.571	0.624	0.681	0.76	0.85	0.937	1.036	1.179	1.273

Cc1ccc(S(=O)(=O)[O-])cc1.O=C1CCC[NH+]1C1CCCCC1 + O
viscosity [mPa·s], 101 kPa
Settings	x1 = 0.002718	x1 = 0.008026	x1 = 0.01073
298.15 K	1.035	–	1.485
303.15 K	–	1.165	–

ClC(Cl)Cl + Cc1ccc(C)cc1
298.15 K, 101 kPa
Settings	viscosity [mPa·s]
x1 = 0.4429	0.6167
x1 = 0.5074	0.6102
x1 = 0.5571	0.6084
x1 = 0.5997	0.6031
x1 = 0.6505	0.6003
x1 = 0.6897	0.5954
x1 = 0.7351	0.5903

CCCCCCCCCCCCCCCC + CCCCCCCCCCCC
298.15 K, 101.33 kPa
Settings	viscosity [mPa·s]
x2 = 0.1077	2.821
x2 = 0.2113	2.643
x2 = 0.3061	2.467
x2 = 0.4097	2.281
x2 = 0.5073	2.102
x2 = 0.6082	1.936
x2 = 0.7053	1.767
x2 = 0.8045	1.636
x2 = 0.905	1.476

O=CC(Cl)(Cl)Cl + CCO
viscosity [mPa·s], 101 kPa
Settings	313.15 K	318.15 K	323.15 K
x1 = 0.1	1.126	1.031	0.939
x1 = 0.15	1.406	1.271	1.141
x1 = 0.2	1.753	1.569	1.397
x1 = 0.25	2.2	1.951	1.702
x1 = 0.3	2.783	2.383	2.074
x1 = 0.4	4.053	3.366	2.848
x1 = 0.425	4.352	3.58	3
x1 = 0.45	4.632	3.769	3.141
x1 = 0.475	4.757	3.854	3.201
x1 = 0.49	4.703	3.788	3.143
x1 = 0.5	4.565	3.673	3.064
x1 = 0.55	3.937	3.201	2.706
x1 = 0.6	3.311	2.737	2.392
x1 = 0.7	2.258	1.989	1.757
x1 = 0.75	1.976	1.724	1.53
x1 = 0.8	1.755	1.542	1.38
x1 = 0.9	1.351	1.219	1.12

ClC(Cl)Cl + CC1COC(=O)O1
303.15 K, 101.3 kPa
Settings	viscosity [mPa·s]
x2 = 0.0961	0.5649
x2 = 0.1929	0.6358
x2 = 0.2906	0.7195
x2 = 0.3894	0.8171
x2 = 0.4887	0.9421
x2 = 0.5894	1.098
x2 = 0.6906	1.287
x2 = 0.7925	1.52
x2 = 0.8962	1.808

ClC(Cl)Cl + COC(=O)OC
viscosity [mPa·s], 101.33 kPa
Settings	x2 = 0.0987	x2 = 0.2134	x2 = 0.3031	x2 = 0.4027	x2 = 0.5031	x2 = 0.6187	x2 = 0.7021	x2 = 0.7996	x2 = 0.9013
298.15 K	0.528	0.553	0.566	0.57	0.565	0.559	0.546	0.545	0.541
303.15 K	0.501	0.525	0.53	0.536	0.531	0.523	0.514	0.513	0.509
308.15 K	0.475	0.494	0.504	0.507	0.502	0.493	0.484	0.48	0.48
